Measured values: PubChem BioAssay (NCI)
Where “and” joins values, the source holds several entries; their conditions need not be identical. Identical values can stand only once.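 Following 48 hours of exposure in 96-well plates, responses at five concentrations were used to interpolate endpoints linearly. GI50: concentration for 50% inhibition of growth. Definition used: TGI = concentration required for complete inhibition of growth.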

Assays:
Assay in all cases: NCI tumour cell line growth inhibition, 48 h
[1] = test system: XF 498 CNS
[2] = test system: HOP-18 NSCLC
[3] = test system: M19-MEL melanoma
[4] = test system: DLD-1 colon
[5] = test system: P388 leukemia
[6] = test system: SN12K1 renal
[7] = test system: P388/ADR leukemia
[8] = test system: DMS 114 small cell lung
[9] = test system: DMS 273 small cell lung
[10] = test system: KM20L2 colon
[11] = test system: LXFL 529 NSCLC

| Compound | TGI [1] | TGI [2] | TGI [3] | TGI [4] | TGI [5] | TGI [6] | TGI [7] | TGI [8] | TGI [9] | TGI [10] | TGI [11] | GI50 [2] | GI50 [3] | GI50 [4] | GI50 [5] | GI50 [6] | GI50 [7] | GI50 [8] | GI50 [9] | GI50 [10] |
| --- | --- | --- | --- | --- | --- | --- | --- | --- | --- | --- | --- | --- | --- | --- | --- | --- | --- | --- | --- | --- |
| CSc1nc(CO)c(CO)n1C | > 100 µM | > 100 µM | > 100 µM | > 100 µM | > 100 µM | > 100 µM | > 100 µM | > 100 µM | > 100 µM | > 100 µM |  |  |  |  |  |  |  |  |  |  |
| Cc1[nH]c(=O)[nH]c(=O)c1/C=C/C(=O)NC(CO)CS(=O)CS(C)=O (stereo not given) | 8.12 µM | 551 µM | 74.3 µM | 253 µM | 74.8 µM | 64.8 µM | 225 µM | 42 µM | 117 µM | 328 µM |  |  |  |  |  |  |  |  |  |  |
| COc1ccccc1CC(C)N (stereo not given) | > 100 µM | > 100 µM |  | > 100 µM |  |  |  | > 100 µM | > 100 µM | > 100 µM | > 100 µM |  |  |  |  |  |  |  |  |  |
| COc1ccc(-c2nc3c(nc2-c2ccc(OC)cc2)C(N)=NS(=O)(=O)N3)cc1 |  |  | > 100 µM | > 100 µM |  |  |  | > 100 µM | > 100 µM |  |  |  |  |  |  |  |  |  |  |  |
| CC1C(=O)CC(c2cccs2)N(N=O)C1c1cccs1 (stereo not given) | 45.3 µM | > 100 µM | > 100 µM | > 100 µM | 43.1 µM | > 100 µM | 40.8 µM |  | > 100 µM | > 100 µM |  |  |  |  |  |  |  |  |  |  |
| COC(=O)C1=C(C)N2CCSC2(C)C(C(=O)OC)C1c1cccc(Cl)c1 (stereo not given) |  |  | 31.9 µM |  |  |  |  | 44.6 µM |  | 43.4 µM | 72.5 µM |  |  |  |  |  |  |  |  |  |
| CCN(CC)CC[n+]1ccc2c(C)c3[nH]c4ccc(O)cc4c3c(C)c2c1 |  | 17.9 µM and 42.8 µM | 5.48 µM and 6.71 µM | > 96.4 µM and 102 µM | 2.48 µM and 4.85 µM | 11.9 µM and 16.6 µM | 64.7 µM and 91.7 µM | 8.87 µM and 15.4 µM | 19.6 µM and 20.7 µM | 35.8 µM and 46.4 µM | 20 µM | 5.6 µM | 0.954 µM | 7.81 µM | 0.0256 µM | 0.748 µM | 5.08 µM | 0.652 µM | 1.93 µM | 6.95 µM |
| CN(C)CCNC(=O)c1cc(Cl)cc2cc3ccccc3nc12 | 3.37 µM | 21.3 µM | 3.56 µM | 5.35 µM | 20.1 µM | 3.34 µM |  | 2.21 µM | 2.71 µM | 1.42 µM |  |  |  |  |  |  |  |  |  |  |
| Nc1ccc(O)c2c1C(=O)c1c(N)ccc(O)c1C2=O | > 100 µM |  | > 100 µM | > 100 µM |  |  |  | > 100 µM | > 100 µM |  | > 100 µM |  |  |  |  |  |  |  |  |  |
| S=c1c2[nH]cnc2ncn1CCSC1=NC=NC2=NC=NC21 (stereo not given) | > 100 µM | > 100 µM | > 100 µM | > 100 µM |  |  |  | > 100 µM | > 100 µM | > 100 µM |  |  |  |  |  |  |  |  |  |  |
